Experimental data as given in patent EP3016671B1, “ACTIVELY T[…] PROTEASE-RESISTANT PEPTIDES AS BBB SHUTTLES AND SHUTTLE-CARGO CONSTRUCTS” (Universitat de Barcelona, priority 2013, dated 2015).
Positions of bridges follow the written chain, without caps; N, C: chain ends. Non-standard residues stand in square brackets, D forms with d. Residues, ends and D or L forms follow the SMILES beside them. Dopa = N[C@@H](Cc1ccc(O)c(O)c1)C(=O)O; Dap = NC[C@H](N)C(=O)O

Legend:
[1] = Solubility limit in phosphate buffer saline (dosing solution); assay type: physicochemical; settings: in 200 µL phosphate buffer saline
Experimental: (§1) • 1) In zebra fish: The assay was performed by Neuron Bio (Granada). The protocol was based on the assessment of the acute toxicity of substances on zebra fish (Danio rerio) using a static method. This short-term toxicity assay method replicated the guidelines of the document OECD Draft Guideline for the study of chemicals, Fish Embryo Toxicity (FET) Test (30 May, 2006). 5 concentrations were evaluated (4.6, 10, 22, 46 and 100 mg/L) in water containing 0.1% DMSO. A control group (vehicle: water and 0.1 % DMSO) and a group with 3,4-dicloroaniline were set up to make sure test conditions were reproducible. […] Apamin (SEQ ID NO:16) was dissolved in phosphate buffer saline (vehicle) so that 200 µL would contain 50 nmol of this peptide (corresponding to its LD50). Compound with SEQ ID NO:9 was dissolved in the same buffer so that 200 µL would contain 1200 nmol of this peptide (near the solubility limit). A first group of six mice (male, 20±2 g, Swiss white mice) were injected with 200 µL of apamin. A second group of six mice were injected with 200 µL of compound with SEQ ID NO:9. A third group of mice were injected with 200 µL of vehicle.

[2] = PAMPA assay (passive diffusion); assay type: in vitro ADME; settings: 400 µM, pH 7.4, 4 h, 20°C, four replicates
Experimental: The buffer was prepared from the concentrated solution by plON, following the manufacturer's instructions. The pH was adjusted to 7.4 using a solution of 0.5 M NaOH. The PAMPA sandwich was separated, and the donor well was filled with 195 µL of the compound with SEQ ID NO 9 (400 µM) solution and a stirring magnet was added. The acceptor plate was then placed into the donor plate. Next, 4 µL of the 20 mg/mL phospholipid mixture (PBLEP) in dodecane was added to the filter of each well, and 200 µL of buffer solution was added to each acceptor well. The plate was then covered. Four replicates were performed for each compound. The PAMPA plate was incubated for 4 h at 20°C and under saturated atmosphere in a GUT-BOXTM apparatus under an agitation vigorous enough to reduce the unstirred water layer (UWL) to 25 µm. After the incubation, the sandwich was separated, and an aliquot of each donor and acceptor well was analyzed by RP-HPLC-UV ad MALDI-TOF MS.

[3] = test system: mice; assay: Acute toxicity (lethality) after intracaudal injection in mice; assay type: in vivo, Swiss white mice; settings: six mice, observed up to 24 hours
Experimental: as §1

[4] = test system: bovine brain endothelial cells; assay: Evidences of active transport in the bovine cell model (NaN3 inhibition, saturation, 4 °C, abluminal-luminal); assay type: in vitro ADME; settings: for Relative transport: saturation
Experimental: (§2) 1) NaN3 inhibition: Sodium azide (NaN3) is an inhibitor of the resipiratory pathway and, therefore, decreases energy-dependent processes such as transcytosis. […] 2) saturation: Three concentrations of the compound with SEQ ID NO9 were assayed following the procedure of the Example 28.
(§3) The results are consistent with a saturable transport mechanism considering the plateau region has been reached at 100 µM. 3) dramatic decrease in permeability at reduced temperature: The procedure of the Example 28 was followed until the endothelial cells were confluent. To perform the experiment, the filters (transwells) were washed with Ringer-HEPES buffer. The abluminal compartment was filled with 800 µL of Ringer-HEPES and the luminal compartment was filled with 200 µL of the compound with SEQ ID NO 9 in Ringer-HEPES (200 µM). The system was incubated at 4 °C and 5 % CO2 for 2 h. […] The permeability at 4 °C is 0.23±0.04)·10^-6 cm/s, which is dramatically lower (P < 0.0001, unpaired t-test) than at 37 °C. This low transport is consistent with an energy-dependent process. 4) luminal-abluminal transport > abluminal-luminal transport.: The procedure of the Example 28 was followed until the endothelial cells were confluent. […] The abluminal compartment (in this experiment the donor) was filled with 800 µL of the compound with SEQ ID NO 9 in Ringer-HEPES (200 µM) and the luminal compartment (in this experiment the acceptor) with 200 µL Ringer-HEPES.

[5] = as above; assay type: in vitro ADME; settings: bovine; 200 µM, 37 °C, 2 h, abluminal compartment as donor
Experimental: as §2, §3

[6] = test system: zebra fish (Danio rerio); assay: Acute toxicity in zebra fish, Fish Embryo Toxicity (FET) test; assay type: in vivo; settings: static method, 4.6, 10, 22, 46 and 100 mg/L in water containing 0.1% DMSO
Experimental: as §1

[7] = test system: bovine brain endothelial cells; assay: Transport across the BBB, in vitro bovine cell assay (co-culture, transwell); settings: bovine cell model, 2 h, 37 °C, Ringer-HEPES pH 7.4; 200 µM (Example 21: 1.75 µM)
Source text: (§4) The evaluation method chosen to test the compounds of formula (I) and (II) of the invention was a cell-based assay consisting of a co-culture of brain endothelial cells and astrocytes, which allows to evaluate or to predict the transport of compounds through the BBB. The co-culture method used was described by Gaillard and de Boer in 2008 (Gaillard, PJ et al. "2B-Trans technology: targeted drug delivery across the blood-brain barrier" Methods Mol Biol 2008, vol. 437 pp. 161-175) and consists in seeding of rat astrocytes in a side of a polycarbonate filter (transwell) and bovine brain endothelial cells on the other side of the filter. Under these conditions endothelial cells are able to reach the confluence mimicking the BBB. […] Is commonly used model for permeation studies and toxicity of compounds across the BBB.
(§5) The co-culture assay was used to determine the capacity of the constructs cargo-shuttle to cross the BBB. The apparent permeability of the compounds was measured in triplicate at a concentration of 200 µ M for Examples 1, 2, 3, 5, 10, 13, 15, 16, 17 and 19 and at a concentration of 1.75 µM for Example 21. All the assays were performed with transendothelial electrical resistance values equal or higher than 100 Ω · cm^2 and were carried out in the presence of lucifer yellow to assess the integrity of the cell membrane during the test. The permeability tests were performed in Ringer-HEPES buffer at pH 7.4. The compound of interest was dissolved in the buffer to the desired concentration.
(§6) Once the endothelial cells were confluent on the filters (transwells) these were washed with Ringer-HEPES buffer. The acceptor well was filled with 800 µ L of Ringer-HEPES buffer and the donor well with 200 µL of the solution of the compound to be studied. The system was incubated at 37 °C and 5% CO2 for 2 h. After that time the content of the acceptor and donor compartments were analyzed by HPLC-UV, direct ELISA or fluorescence (depending on cargo anchored to the shuttle). […] The apparent permeability was calculated using the following equation: Papp = (dQ/dt) * (1/A) * (1/CO) (cm/s), where (dQ/dt) is the amount of compound present in the compartment acceptor function of time (nmol/s). A is the area of the filter(cm2) and CO is the initial concentration of the compound applied in the donor compartment (nmol/mL).

[8] = as above; settings: pH 7.4
Source text: as §4, §5, §6

[9] = Stability of the shuttles in human serum; assay type: in vitro ADME; settings: 400 µM, HBSS, 37 °C, 90% human serum, 24 h
Experimental: Regarding to the stability study in human serum of the BBB-shuttle (examples 1, 2, 3 and 5), the peptides were incubated at a concentration of 400 µM in buffer HBSS at 37 °C in the presence of 90% human serum. At a range of times, 100 µL aliquots were collected to which methanol was added in order to precipitate the serum proteins. Samples were centrifuged, filtered and analyzed by HPLC-UV and MALDI-TOF MS to determine the degree of degradation of the BBB-shuttle. […] The half life of the derivative bearing a single disulfide bond was 3 h (examples 2), whereas that of the linear version was no more than 8 min.

[10] = test system: mice; settings: amount in 200 µL injected; cited from earlier work
[11] = test system: human endothelial cells derived from hematopoietic stem cells; assay: Transport across the BBB, in vitro human cell assay (co-culture, transwell); assay type: in vitro ADME; settings: human cell model, 37 °C, Ringer-HEPES pH 7.4, 200 µM peptides, 25 nM Examples 22 and 23, 30 nM Example 24, 5 nM Example 25
Experimental: (§7) Due to the great interest to know whether the cargo-BBB shuttle conjugates would be transported across human brain endothelial cells, some of the most relevant cargoes for therapy and diagnosis were assayed in a novel human-based BBB cell model. In this case, the co-culture method used was described by Cecchelli et al. (Cecchelli et al. PloS One. 2014. vol9. pp. e99733) and consists in seeding bovine pericytes in the bottom of a 12-well plate and human endothelial cells derived from hematopoietic stem cells on a transwell filter.
(§8) The compound of interest was disolved or buffer-exhanged and diluted to the desired concentration.
(§9) Cetuximab and cetuximab conjugates were radiolabelled to be assayed in the cell model. Pierce^(R) iodination beads were used following the instructions provided by the manufacturer.
(§10) The apparent permeability was calculated using the same equation as for the bovine cell model.

[12] = as above; assay type: in vitro ADME; settings: human cell model, 37 °C, Ringer-HEPES pH 7.4, 200 µM peptides, 25 nM Examples 22 and 23, 30 nM Example 24, 5 nM Example 25, read-out: Papp (x 10^6)
Experimental: as §7, §8, §9, §10

Question: Which solubility limit [1] does the source give for `CC(C)C[C@@H]1NC(=O)[C@H](C)NC(=O)[C@H]([C@@H](C)O)NC(=O)[C@H](CCC(=O)O)NC(=O)[C@@H]2CCCN2C(=O)[C@H](C)NC(=O)[C@H](CCCCN)NC(=O)[C@@H]2CSSC[C@@H](C(=O)N[C@@H](Cc3c[nH]cn3)C(N)=O)NC(=O)[C@H](C)NC(=O)[C@H](C)NC(=O)[C@H](C)NC(=O)[C@H](CSSC[C@H](N)C(=O)N[C@@H](CC(N)=O)C(=O)N2)NC1=O` [Example 1, H-Cys-Asn-Cys-Lys-Ala-Pro-Glu-Thr-Ala-Leu-Cys-Ala-Ala-Ala-Cys-His-NH2] (H-CNCKAPETALCAAACH-NH2; disulfide 1-11, 3-15) here?
Answer: ~1200 nmol

Question: What about the “detection in PAMPA by HPLC-UV” value [2] of the same compound?
Answer: could not be detected

Question: What about the “detection in PAMPA by MALDI-TOF MS” value [2] of the same compound?
Answer: only in two out of four replicates was found

Question: What about the animals that died ([3]; 1200 nmol in 200 µL) of the same compound?
Answer: no animal

Question: What about the “animals that showed any envenomation symptoms” value ([3]; 1200 nmol in 200 µL) of the same compound?
Answer: no animal

Question: What about the “permeability at 4 °C” value ([4]; 200 µM, 4 °C, 5 % CO2, 2 h, luminal to abluminal) of the same compound?
Answer: 0.23±0.04 ·10^-6 cm/s

Question: What about the “transport after NaN3 treatment” value ([4]; 30 min treatment with 1.5 mM sodium azide prior to the permeability assay) of the same compound?
Answer: very significantly (p < 0.001) inhibited

Question: And the Relative transport ([4]; concentration 100 µM)?
Answer: 100±39

Question: And the Relative transport ([4]; concentration 200 µM)?
Answer: 110±6

Question: And the Relative transport ([4]; concentration 500 µM)?
Answer: 86±6

Question: And the Papp B→A at 2 h, 200 µM [5]?
Answer: 1.06 ± 0.03 ×10⁻⁶ cm/s

Question: And the “lethal parameters of the embryos” value [6]?
Answer: None of the lethal parameters studied in the embrios treated with the compound with SEQ ID NO:9 was different from those treated with the vehicle

Question: What about the “Transport (%) (2h)” value [7] of the same compound?
Answer: 3.2±0.3%

Question: What about the Papp at 2 h ([8]; bovine) of the same compound?
Answer: 2.7 ± 0.3 ×10⁻⁶ cm/s

Question: What about the “degradation in human serum” value [9] of the same compound?
Answer: No degradation

Question: For `CC(C)C[C@@H]1NC(=O)[C@H](C)NC(=O)[C@H]([C@@H](C)O)NC(=O)[C@H](CCC(=O)O)NC(=O)[C@@H]2CCCN2C(=O)[C@H](C)NC(=O)[C@H](CCCCN)NC(=O)[C@@H]2CSSC[C@@H](C(=O)N[C@@H](CCC(N)=O)C(=O)N[C@@H](CCC(N)=O)C(=O)N[C@@H](Cc3cnc[nH]3)C(N)=O)NC(=O)[C@H](CCCNC(=N)N)NC(=O)[C@H](CCCNC(=N)N)NC(=O)[C@H](C)NC(=O)[C@H](CSSC[C@H](N)C(=O)N[C@@H](CC(N)=O)C(=O)N2)NC1=O` [Comparative example 1, H-Cys-Asn-Cys-Lys-Ala-Pro-Glu-Thr- Ala-Leu-Cys-Ala-Arg-Arg-Cys-Gln-Gln-His-NH2, reference compound], which animals that died ([3]; 50 nmol in 200 µL) is on record?
Answer: two

Question: And the “animals that showed convulsions during the first hours” value ([3]; 50 nmol in 200 µL)?
Answer: All the animals

Question: What about the LD50 [10] of the same compound?
Answer: 50 nmol

Question: And the “Transport (%) (2h)” value [7]?
Answer: 0.9±0.2%

Question: And the Papp [8]?
Answer: 0.8 ± 0.1 ×10⁻⁶ cm/s

Question: Which “Transport (%) (2h)” value [11] does the source give for `CC(C)C[C@@H]1NC(=O)[C@H](C)NC(=O)[C@H]([C@@H](C)O)NC(=O)[C@H](CCC(=O)O)NC(=O)[C@@H]2CCCN2C(=O)[C@H](C)NC(=O)[C@H](CCCCN)NC(=O)[C@@H](NC(=O)[C@@H](N)Cc2ccc(O)c(O)c2)CNC(=O)C[C@@H](C(N)=O)NC1=O` [Example 18, L-Dopa-Dap-Lys-Ala-Pro-Glu-Thr-Ala-Leu-Asp-NH2] (H-[Dopa][Dap]KAPETALD-NH2; lactam 2-10) here?
Answer: 6.6±2.1%

Question: And the Papp at 2 h [12]?
Answer: 4 ± 1.3 ×10⁻⁶ cm/s
